According to US20050267050A1, “Compositions and methods for treating mdma-induced toxicity” (YEDA RESEARCH AND DEVELOPMENT CO. LTD., priority 2002, published 2005):

System: MDMA acute toxicity in mice
Test: Protective activity against MDMA acute toxicity (survival) in mice
Type: in vivo, C57B1/6J mice
Details: inhibitor i.p. 5-120 minutes before toxic dose of MDMA; FIG. 6A
Procedure: Next step was to determine whether compounds blocking the enhanced expression of GABA transporters may restraint MDMA-induced hyperthermia. We ran trials to determine whether the mortality levels causes by MDMA administration would be affected by treatment with suspected GABA transporter inhibiting compounds Tiagabine, nipecotic acid derivative NO-711, and Vigabatrin which have been used hitherto as anti-epileptics.
Mice were administered dose(s) of mg/ml of MDMA according to the following schedule and were […] injected with a dose of the GABA transporter blocker. In the first set of experiments the effective toxic dose of MDMA was determined. C57B1/6J mice, 2-3 months old, 6 mice in each group, were tested with different concentration of the drug, prepared in saline and injected intraperitoneally. Saline solution was used as a control. The lowest concentration of the drug causing 100% death within 60 minutes was used in the following experiments. Mice (8 in each group) were injected (i.p.) with different concentrations of the tested GABA transporter inhibitor, or other compound, and 5-120 minutes later were injected with the toxic dose of MDMA. […]

Structure (SMILES): Cl.O=C(O)C1=CCCN(CCON=C(c2ccccc2)c2ccccc2)C1 [NO-711, 1-(2(((diphenylmethylene)imino)oxy)ethyl)-1,2,5,6-tetrahydro-3-pyridinecarboxylic acid hydrochloride]
- Survival of MDMA-treated mice: significantly improved the survival
